This passage reports IC50 results from patent publication US11161852B1 (Halia Therapeutics, Inc., priority 2020, dated 2021).

Assay [1] deals with IL-1β release from THP-1 cells. In words: IL-1β Release Assay (PMA-differentiated THP-1 cells, LPS + nigericin). The class given is cell-based. The note with it: Homo sapiens, 250 ng/mL LPS, 20 μM nigericin. How it is done: Approximately 1.5 million THP-1 cells were plated in each well of a 6-well TC plate and incubated with 40 nM PMA in RPMI (10% FBS, 1% Penstrep) for 24 hours. The media was then removed and cells were rested in RPMI (10% FBS, 1% Penstrep) for 24 hours after which time the media was removed and cells were pre-treated for 2 hours with various concentrations of compounds of interest (typically serial 3-fold dilution in RPMI+5% FBS, concentrations ranging from 1 μM to 0.5 nM) in RPMI (5% FBS). The media was again removed and cells were incubated with 250 ng/mL LPS and compounds of interest (concentrations as above) in RMPI (5% FBS) for 2 hours. The media was removed for a last time and cells were incubated with 20 μM nigericin and compounds of interest (concentrations as above) in Opti-MEM for 30 minutes. Cell media was then collected and the amount of cleaved IL-1β was determined using a JESS instrument (Protein Simple) and standard protocols. Cleaved Il-1β antibody was obtained from Cell Signaling (catalogue #83186S) and was used at 1:20 dilution in antibody diluent 2. Protein Simple 1× anti-Rabbit HRP secondary antibody was used along with Protein Simple luminol and peroxide for chemiluminescent detection. Primary antibody incubation time was increased from 30 minutes to 60 minutes.

Assay [2] addresses full-length recombinant human NEK7 (Homo sapiens (Human), UniProt Q8TDX7). In words: NEK7 Enzymatic Assay ([33P]-ATP, casein substrate). The assay is classed as biochemical. Here is the method: Casein substrate (from bovine milk, hydrolyzed and partially dephosphorylated mixture of α, β and a caseins, obtained from Sigma Aldrich, catalogue #C4765, diluted in distilled water to a final concentration of 1 mg/mL) and full-length recombinant human NEK7 (expressed by baculovirus in Sf9 insect cells using a N-terminal GST tag, obtained from SignalChem, catalogue #N09-10G, 0.1 μg/μL) were mixed in assay buffer (20 mM Hepes pH 7.5, 10 mM MgCl2, 1 mM EGTA, 0.02% Brij35, 0.02 mg/ml BSA, 0.1 mM Na3VO4, 2 mM DTT, 1% DMSO). Compounds of interest (serial 3-fold dilution in DMSO from 10 μM to 0.5 nM) or vehicle (1% DMSO) were dispensed into the kinase reaction mixture by Acoustic technology (Echo550; nanoliter range). After incubation at room temperature for 20 minutes, the kinase reaction was initiated by addition of [^33P]-ATP (specific activity […]) and the mixture was incubated at room temperature for 2 hours. The reaction was then stopped by spotting the reaction mixture on strips of phosphocellulose P81 paper. Following washing, the radioactivity of the P81 paper was measured and kinase activity data were expressed as the percent remaining kinase activity in test samples compared to vehicle reactions. IC50 values and curve fits were obtained using Prism (GraphPad Software).

Sequence of full-length recombinant human NEK7 (Q8TDX7 whole entry): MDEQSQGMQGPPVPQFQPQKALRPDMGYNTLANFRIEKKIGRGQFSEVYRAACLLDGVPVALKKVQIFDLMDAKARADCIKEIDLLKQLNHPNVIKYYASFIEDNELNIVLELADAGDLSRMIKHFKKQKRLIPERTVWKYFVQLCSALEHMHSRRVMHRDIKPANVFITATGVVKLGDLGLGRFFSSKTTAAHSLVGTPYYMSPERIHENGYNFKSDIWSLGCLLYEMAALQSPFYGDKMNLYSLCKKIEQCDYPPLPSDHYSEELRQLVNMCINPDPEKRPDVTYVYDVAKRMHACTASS

As usually defined, the IC50 is the concentration at which inhibition is half-maximal. With `CC(C)(C)c1cc(NC(=O)Nc2ccc(-c3cn(C4CC4)c4ncnc(N)c34)cn2)on1` [Example 3, 1-(5-(4-amino-7-cyclopropyl-7H-pyrrolo[2,3-d]pyrimidin-5-yl)pyridin-2-yl)-3-(3-(tert-butyl)isoxazol-5-yl)urea], the IC50 in assay [1] was 151 to 300 nM; in assay [2], < 150 nM.

As for `CC(C)(C#N)c1cc(NC(=O)Nc2ccc(-c3cn(C4CC4)c4ncnc(N)c34)cc2F)on1` [Example 35, 1-(4-(4-amino-7-cyclopropyl-7H-pyrrolo[2,3-d]pyrimidin-5-yl)-2-fluorophenyl)-3-(3-(2-cyanopropan-2-yl)isoxazol-5-yl)urea], the IC50 in assay [1] and in assay [2] was 151 to 300 nM each time.

Turning to `CC1(c2cc(NC(=O)Nc3ccc(-c4cn(C5CC5)c5ncnc(N)c45)cc3F)on2)CC1` [Example 17, 1-(4-(4-amino-7-cyclopropyl-7H-pyrrolo[2,3-d]pyrimidin-5-yl)-2-fluorophenyl)-3-(3-(1-methylcyclopropyl)isoxazol-5-yl)urea], the IC50 in assay [1] and in assay [2] was < 150 nM in each case.

As for `CC(C)(C)c1cc(NC(=O)NC2CC=C(c3cn(C4CC4)c4ncnc(N)c34)CC2)on1` (centres unmarked) [Example 15, 1-(4-(4-amino-7-cyclopropyl-7H-pyrrolo[2,3-d]pyrimidin-5-yl)cyclohex-3-en-1-yl)-3-(3-(tert-butyl)isoxazol-5-yl)urea], the values for the IC50 in assay [1] and in assay [2] were > 1000 nM and > 1500 nM, respectively.

Turning to `Nc1ncnc2c1c(-c1ccc(NC(=O)Nc3cc(C4(C(F)(F)F)CC4)on3)c(F)c1)cn2C1CC1` [Example 10, 1-(4-(4-amino-7-cyclopropyl-7H-pyrrolo[2,3-d]pyrimidin-5-yl)-2-fluorophenyl)-3-(5-(1-(trifluoromethyl)cyclopropyl)isoxazol-3-yl)urea], the IC50 in assay [1] was < 150 nM; in assay [2], 151 to 300 nM.

`Nc1ncnc2c1c(-c1ccc(NC(=O)Nc3cc(C4(C(F)(F)F)CC4)no3)c(F)c1)cn2C1CC(O)C1` (centres unmarked) [Example 39, 1-(4-(4-amino-7-(3-hydroxycyclobutyl)-7H-pyrrolo[2,3-d]pyrimidin-5-yl)-2-fluorophenyl)-3-(3-(1-(trifluoromethyl)cyclopropyl)isoxazol-5-yl)urea]: the IC50 in assay [1] and in assay [2] was < 150 nM each time.

For `Nc1ncnc2c1c(-c1ccc(NC(=O)Nc3cc(C4(C(F)(F)F)CC4)no3)c(F)c1)cn2C1CC1` [Example 5, 1-(4-(4-amino-7-cyclopropyl-7H-pyrrolo[2,3-d]pyrimidin-5-yl)-2-fluorophenyl)-3-(3-(1-(trifluoromethyl)cyclopropyl)isoxazol-5-yl)urea], the IC50 in assay [1] and in assay [2] was < 150 nM each time.

As to `CC(C)(O)Cn1cc(-c2ccc(NC(=O)Nc3cc(C4(C(F)(F)F)CC4)no3)c(F)c2)c2c(N)ncnc21` [Example 14, 1-(4-(4-amino-7-(2-hydroxy-2-methylpropyl)-7H-pyrrolo[2,3-d]pyrimidin-5-yl)-2-fluorophenyl)-3-(3-(1-(trifluoromethyl)cyclopropyl)isoxazol-5-yl)urea], the figures for the IC50 in assay [1] and in assay [2] were < 150 nM and 151 to 300 nM, respectively.

On to `CC(C)(C)c1cc(NC(=O)Nc2ccc(-c3cn(C4CC4)c4ncnc(N)c34)cc2F)on1` [Example 2, 1-(4-(4-amino-7-cyclopropyl-7H-pyrrolo[2,3-d]pyrimidin-5-yl)-2-fluorophenyl)-3-(3-(tert-butyl)isoxazol-5-yl)urea], for which the IC50 in assay [1] and in assay [2] was < 150 nM each time.

As for `Nc1ncnc2c1c(-c1ccc(NC(=O)Nc3cc(C4(C(F)(F)F)CC4)no3)nc1)cn2C1CC1` [Example 37, 1-(5-(4-amino-7-cyclopropyl-7H-pyrrolo[2,3-d]pyrimidin-5-yl)pyridin-2-yl)-3-(3-(1-(trifluoromethyl)cyclopropyl)isoxazol-5-yl)urea], the IC50 in assay [1] and in assay [2] was < 150 nM each time.

As to `CN1CCC(n2cc(-c3ccc(NC(=O)Nc4cc(C5(C(F)(F)F)CC5)no4)c(F)c3)c3c(N)ncnc32)CC1` [Example 26, 1-(4-(4-amino-7-(1-methylpiperidin-4-yl)-7H-pyrrolo[2,3-d]pyrimidin-5-yl)-2-fluorophenyl)-3-(3-(1-(trifluoromethyl)cyclopropyl)isoxazol-5-yl)urea], the IC50 in assay [2] lay within 301 to 500 nM.

On to `Cc1cc(NC(=O)Nc2ccc(-c3cn(C4CC4)c4ncnc(N)c34)cc2F)no1` [Example 8, 1-(4-(4-amino-7-cyclopropyl-7H-pyrrolo[2,3-d]pyrimidin-5-yl)-2-fluorophenyl)-3-(5-methylisoxazol-3-yl)urea], for which, in assay [2], the IC50 fell in the range of 501 to 1500 nM.

Regarding `CC(C)(C)c1cc(NC(=O)NC2CCC(c3cn(C4CC4)c4ncnc(N)c34)CC2)on1` (centres unmarked) [Example 16, 1-(4-(4-amino-7-cyclopropyl-7H-pyrrolo[2,3-d]pyrimidin-5-yl)cyclohexyl)-3-(3-(tert-butyl)isoxazol-5-yl)urea], the IC50 in assay [2] was > 1500 nM.

Regarding `COc1cc(-c2cn(C3CC3)c3ncnc(N)c23)ccc1NC(=O)Nc1cc(C2(C(F)(F)F)CC2)no1` [Example 55, 1-(4-(4-amino-7-cyclopropyl-7H-pyrrolo[2,3-d]pyrimidin-5-yl)-2-methoxyphenyl)-3-(3-(1-(trifluoromethyl)cyclopropyl)isoxazol-5-yl)urea], the IC50 in assay [2] was > 1500 nM.

In the case of `CC(C)(F)c1cc(NC(=O)Nc2ccc(-c3cn(C4CC4)c4ncnc(N)c34)cc2F)on1` [Example 9, 1-(4-(4-amino-7-cyclopropyl-7H-pyrrolo[2,3-d]pyrimidin-5-yl)-2-fluorophenyl)-3-(3-(2-fluoropropan-2-yl)isoxazol-5-yl)urea], the IC50 in assay [1] is 151 to 300 nM; in assay [2], < 150 nM.

For `Nc1ncnc2c1c(-c1ccc(NC(=O)Nc3cc(C4(C(F)(F)F)CC4)no3)cn1)cn2C1CC1` [Example 59, 1-(6-(4-amino-7-cyclopropyl-7H-pyrrolo[2,3-d]pyrimidin-5-yl)pyridin-3-yl)-3-(3-(1-(trifluoromethyl)cyclopropyl)isoxazol-5-yl)urea], in assay [2], the IC50 is > 1500 nM.

Turning to `CC1(c2cc(NC(=O)Nc3ccc(-c4cn(C5CC5)c5ncnc(N)c45)cc3F)on2)CCC1` [Example 34, 1-(4-(4-amino-7-cyclopropyl-7H-pyrrolo[2,3-d]pyrimidin-5-yl)-2-fluorophenyl)-3-(3-(1-methylcyclobutyl)isoxazol-5-yl)urea], the IC50 in assay [1] and in assay [2] was < 150 nM each time.

On to `CC(C)(C)c1cc(NC(=O)Nc2ccc(-c3cn(C4CC4)c4ncnc(N)c34)cc2F)no1` [Example 4, 1-(4-(4-amino-7-cyclopropyl-7H-pyrrolo[2,3-d]pyrimidin-5-yl)-2-fluorophenyl)-3-(5-(tert-butyl)isoxazol-3-yl)urea], for which, in assay [2], the IC50 was < 150 nM.

As to `CC(C)(C)c1nnc(NC(=O)Nc2ccc(-c3cn(C4CC4)c4ncnc(N)c34)cc2F)s1` [Example 19, 1-(4-(4-amino-7-cyclopropyl-7H-pyrrolo[2,3-d]pyrimidin-5-yl)-2-fluorophenyl)-3-(5-(tert-butyl)-1,3,4-thiadiazol-2-yl)urea], the IC50 in assay [2] fell in the range of 301 to 500 nM.

In the case of `Cc1cc(-c2cn(C3CC3)c3ncnc(N)c23)ccc1NC(=O)Nc1cc(C2(C(F)(F)F)CC2)no1` [Example 38, 1-(4-(4-amino-7-cyclopropyl-7H-pyrrolo[2,3-d]pyrimidin-5-yl)-2-methylphenyl)-3-(3-(1-(trifluoromethyl)cyclopropyl)isoxazol-5-yl)urea], the IC50 in assay [1] is 301 to 500 nM; in assay [2], 501 to 1500 nM.

Consider `CC(C)(C)c1csc(NC(=O)Nc2ccc(-c3cn(C4CC4)c4ncnc(N)c34)cc2F)n1` [Example 18, 1-(4-(4-amino-7-cyclopropyl-7H-pyrrolo[2,3-d]pyrimidin-5-yl)-2-fluorophenyl)-3-(4-(tert-butyl)thiazol-2-yl)urea], for which the IC50 in assay [2] is > 1500 nM.

For `Nc1ncnc2c1c(-c1ccc(NC(=O)Nc3cc(C(F)(F)F)no3)c(F)c1)cn2C1CC1` [Example 28, 1-(4-(4-amino-7-cyclopropyl-7H-pyrrolo[2,3-d]pyrimidin-5-yl)-2-fluorophenyl)-3-(3-(trifluoromethyl)isoxazol-5-yl)urea], in assay [2], the IC50 lay within 151 to 300 nM.
